What was measured:
[1] = biological target: T1, Ectonucleotide pyrophosphatase/phosphodiesterase family member 1 (Homo sapiens, UniProt P22413); test: Inhibition of ENPP1 (unknown origin)
T1 sequence (P22413 whole entry): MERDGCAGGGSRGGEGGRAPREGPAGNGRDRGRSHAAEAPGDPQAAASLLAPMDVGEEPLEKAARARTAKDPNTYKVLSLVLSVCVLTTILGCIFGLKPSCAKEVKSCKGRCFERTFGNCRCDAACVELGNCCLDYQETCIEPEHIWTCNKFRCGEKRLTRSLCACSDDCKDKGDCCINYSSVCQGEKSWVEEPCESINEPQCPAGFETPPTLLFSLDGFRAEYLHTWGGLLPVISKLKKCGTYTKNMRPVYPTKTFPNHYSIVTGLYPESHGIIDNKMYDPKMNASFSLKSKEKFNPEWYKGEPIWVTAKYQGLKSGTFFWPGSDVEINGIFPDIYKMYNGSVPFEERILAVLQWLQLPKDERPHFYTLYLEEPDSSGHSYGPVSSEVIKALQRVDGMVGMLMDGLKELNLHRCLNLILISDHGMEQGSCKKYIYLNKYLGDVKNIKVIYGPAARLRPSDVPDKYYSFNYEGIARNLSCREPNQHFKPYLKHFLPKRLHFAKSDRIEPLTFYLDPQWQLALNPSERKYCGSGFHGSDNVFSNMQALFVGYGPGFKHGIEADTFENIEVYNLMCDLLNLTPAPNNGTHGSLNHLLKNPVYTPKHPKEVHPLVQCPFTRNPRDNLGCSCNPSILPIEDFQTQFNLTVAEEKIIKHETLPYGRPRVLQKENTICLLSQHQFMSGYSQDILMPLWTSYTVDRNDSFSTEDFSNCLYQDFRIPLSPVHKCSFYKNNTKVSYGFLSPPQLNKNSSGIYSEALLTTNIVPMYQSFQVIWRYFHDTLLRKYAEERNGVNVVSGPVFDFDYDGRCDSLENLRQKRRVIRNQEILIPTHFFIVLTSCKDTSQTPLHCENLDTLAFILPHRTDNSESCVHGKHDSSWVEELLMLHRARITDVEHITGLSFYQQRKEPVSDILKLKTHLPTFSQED

[2] = biological target: T2, Ectonucleotide pyrophosphatase/phosphodiesterase family member 3 (Homo sapiens, UniProt O14638); test: Inhibition of ENPP3 (unknown origin)
T2 sequence (O14638 whole entry): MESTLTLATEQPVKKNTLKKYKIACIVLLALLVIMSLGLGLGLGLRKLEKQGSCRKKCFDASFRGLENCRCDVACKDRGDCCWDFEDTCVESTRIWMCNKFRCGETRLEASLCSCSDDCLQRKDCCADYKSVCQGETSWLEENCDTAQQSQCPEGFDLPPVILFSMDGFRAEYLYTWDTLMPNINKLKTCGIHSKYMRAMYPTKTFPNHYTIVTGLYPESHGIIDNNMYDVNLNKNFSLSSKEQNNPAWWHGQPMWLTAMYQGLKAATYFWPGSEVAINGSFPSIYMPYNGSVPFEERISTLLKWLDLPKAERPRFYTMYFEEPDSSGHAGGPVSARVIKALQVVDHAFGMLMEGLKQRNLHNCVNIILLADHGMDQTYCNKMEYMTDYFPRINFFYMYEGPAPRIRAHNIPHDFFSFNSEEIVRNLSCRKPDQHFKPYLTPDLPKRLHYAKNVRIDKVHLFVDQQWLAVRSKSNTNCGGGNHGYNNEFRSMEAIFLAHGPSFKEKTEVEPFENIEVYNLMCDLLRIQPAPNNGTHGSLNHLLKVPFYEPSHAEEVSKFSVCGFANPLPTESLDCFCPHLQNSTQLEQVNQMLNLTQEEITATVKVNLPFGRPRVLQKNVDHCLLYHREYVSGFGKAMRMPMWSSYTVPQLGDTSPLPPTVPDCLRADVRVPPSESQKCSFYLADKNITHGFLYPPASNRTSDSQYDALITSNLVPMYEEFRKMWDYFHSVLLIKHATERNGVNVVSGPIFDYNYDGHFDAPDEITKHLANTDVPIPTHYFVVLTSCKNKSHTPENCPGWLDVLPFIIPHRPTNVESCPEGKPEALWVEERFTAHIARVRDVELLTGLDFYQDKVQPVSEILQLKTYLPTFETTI

[3] = biological target: T3, Autotaxin (Homo sapiens, UniProt Q13822); test: Inhibition of ENPP2 (unknown origin)
[4] = biological target: T4, Glycerophosphocholine cholinephosphodiesterase ENPP6 (Homo sapiens, UniProt Q6UWR7); test: Inhibition of ENPP6 (unknown origin)
T4 sequence (Q6UWR7 whole entry): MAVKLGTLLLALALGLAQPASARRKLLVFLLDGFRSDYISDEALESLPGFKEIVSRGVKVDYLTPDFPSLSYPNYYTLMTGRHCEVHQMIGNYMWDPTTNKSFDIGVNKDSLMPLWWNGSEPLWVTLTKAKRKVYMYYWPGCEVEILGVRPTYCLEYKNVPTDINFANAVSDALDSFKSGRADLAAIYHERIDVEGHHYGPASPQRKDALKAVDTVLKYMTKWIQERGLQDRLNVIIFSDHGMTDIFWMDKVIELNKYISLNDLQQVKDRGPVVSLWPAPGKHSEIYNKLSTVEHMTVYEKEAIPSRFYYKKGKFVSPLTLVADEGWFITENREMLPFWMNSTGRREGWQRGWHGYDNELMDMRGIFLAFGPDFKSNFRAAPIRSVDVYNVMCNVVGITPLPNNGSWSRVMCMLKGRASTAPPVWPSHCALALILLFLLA

[5] = biological target: T5, Ectonucleotide pyrophosphatase/phosphodiesterase family member 3 (Homo sapiens) (UniProt O14638); test: Inhibition of ENPP3 (unknown origin) at 50 uM relative to control
T5 sequence (whole entry): T2 sequence (O14638 whole entry)

[6] = biological target: T3, Autotaxin; test: Inhibition of ENPP2 (unknown origin) at 50 uM relative to control
[7] = biological target: T6, Glycerophosphocholine cholinephosphodiesterase ENPP6 (Homo sapiens) (UniProt Q6UWR7); test: Inhibition of ENPP6 (unknown origin) at 50 uM relative to control
T6 sequence (whole entry): T4 sequence (Q6UWR7 whole entry)

Structure (SMILES) | IC50 [1] [µM] | IC50 [2] [µM] | IC50 [3] [µM] | IC50 [4] [µM] | inhibition [5] [%] | inhibition [6] [%] | inhibition [7] [%]
CC(=O)Nc1cccc(Cc2c(C)nc3ncnn3c2N(C)C)c1 | 2.3 | > 50 | > 50 | > 50 | 3 | < 1 | < 1
Cc1nc2ncnn2c(N(C)C)c1Cc1cccc(F)c1 | 1.5 | > 50 | > 50 | > 50 | 6.3 | 14 | < 1
Cc1nc2ncnn2c(N(C)C)c1Cc1cccc(Cl)c1 | 1.1 | > 50 | > 50 | > 50 | 8.7 | 19 | 1.3
C#CCNc1c(Cc2ccccc2)c(C)nc2ncnn12 | > 30 | > 50 | > 50 | > 50 | 24 | 1.4 | < 1
CCN(CC)c1c(Cc2ccccc2)c(C)nc2ncnn12 | > 30 | > 50 | > 50 | > 50 | < 1 | 1.9 | < 1
Cc1nc2ncnn2c(N(C)C)c1CC1CCCCC1 | > 30 | > 50 | > 50 | > 50 | 3.7 | < 1 | < 1
Cc1nc2ncnn2c2c1Cc1ccccc1N2 | > 30 | > 50 | > 50 | > 50 | 21 | < 1 | < 1
Cc1nc2ncnn2c(NCCO)c1Cc1ccccc1 | > 30 | > 50 | > 50 | > 50 | 4.3 | < 1 | < 1
Cc1nc2ncnn2c(NCc2cccnc2)c1Cc1cccc(N)c1 | 7 | > 50 | > 50 | > 50 | 12 | < 1 | < 1
COCCNc1c(Cc2ccccc2)c(C)nc2ncnn12 | > 30 | > 50 | > 50 | > 50 | 3.3 | < 1 | < 1
CCCNc1c(Cc2ccccc2)c(C)nc2ncnn12 | 32 | > 50 | > 50 | > 50 | 5.2 | 12 | 3.8
Cc1nc2ncnn2c(N(C)C)c1CCc1ccccc1 | 23 | > 50 | > 50 | > 50 | 3.6 | < 1 | < 1
COc1cccc(Cc2c(C)nc3ncnn3c2N(C)C)c1 | 1.6 | > 50 | > 50 | > 50 | 6.5 | 31 | < 1
Cc1nc2ncnn2c(N(C)C)c1Cc1ccc(N)cc1 | 0.47 | > 50 | > 50 | > 50 | 12 | 7.7 | < 1
CCNc1c(Cc2ccccc2)c(C)nc2ncnn12 | 22 | > 50 | > 50 | > 50 | 7 | 7.8 | < 1
CCCN(CCC)c1c(Cc2ccccc2)c(C)nc2ncnn12 | > 30 | > 50 | > 50 | > 50 | < 1 | 5.5 | < 1
Cc1nc2ncnn2c(N(C)Cc2ccccc2)c1Cc1cccc(N)c1 | > 30 | > 50 | > 50 | > 50 | < 1 | < 1 | < 1
Cc1nc2ncnn2c(N(C)C)c1Cc1cccc(-c2ccccc2)c1 | 21 | > 50 | > 50 | > 50 | 5.9 | 6.1 | < 1
COc1ccc(Cc2c(C)nc3ncnn3c2N(C)C)cc1OC | 1.3 | > 50 | > 50 | > 50 | 4.6 | 6.8 | < 1
Cc1nc2ncnn2c(N(C)C)c1Cc1ccccc1[N+](=O)[O-] | 3.1 | > 50 | > 50 | > 50 | 6.8 | 4.7 | < 1
Cc1nc2ncnn2c(N(C)C)c1Cc1cccc([N+](=O)[O-])c1 | 3.6 | > 50 | > 50 | > 50 | 4.3 | 11 | < 1
Cc1nc2ncnn2c(O)c1Cc1ccccc1 | > 30 | > 50 | > 50 | > 50 | 2.4 | < 1 | < 1
Cc1cc(O)n2ncnc2n1 | > 30 | > 50 | > 50 | > 50 | 5.1 | < 1 | 2.1
Cc1nc2ncnn2c(NCCCC(=O)O)c1Cc1cccc(N)c1 | 11 | > 50 | > 50 | > 50 | 11 | 22 | 3.7
Cc1nc2ncnn2c(N(C)C)c1Cc1ccc(Cl)cc1 | 5.7 | > 50 | > 50 | > 50 | 1.5 | 4.9 | 2
Cc1nc2ncnn2c(NCCCCC(=O)O)c1Cc1cccc(N)c1 | 3.6 | > 50 | > 50 | > 50 | 22 | 27 | 3.5
Cc1cccc(Cc2c(C)nc3ncnn3c2N(C)C)c1 | 3.1 | > 50 | > 50 | > 50 | 4.9 | 9.7 | 1.1
Cc1cc(N(C)C)n2ncnc2n1 | 28 | > 50 | > 50 | > 50 | 10 | < 1 | < 1
